# “Also recorded” adds a separate entry of the source.
# Assays:
# H. pylori = assay: Antibacterial activity of nanoparticles versus free fatty acid in aqueous system (PBS); format: cell-based, Helicobacter pylori; conditions: same concentration (0.3% w/v)
# Excerpt: (§1) The present inventors further tested the antibacterial activity of the nanoparticles of the present invention and free fatty acids in an aqueous system.
# Propionibacterium acnes = assay: as above; format: cell-based
# Excerpt: as §1
Structure (SMILES),bactericidal activity against H. pylori in aqueous system (H. pylori),bactericidal effect on Propionibacterium acnes in aqueous system (Propionibacterium acnes)
"CCCC/C=C\CCCCCCCC(=O)O [free myristoleic acid, myristoleic acid]",does not exhibit activities against H. pylori; also recorded: did not show bactericidal activity,
"CCCCCCCCCCCC(=O)O [free lauric acid, lauric acid]",,almost no bactericidal effect

# Source: patent publication US11266604B2 (ALAYA (SHANGHAI) BIOSCIENCE CO., LTD, priority 2015, dated 2022)
